Experimental data published in patent US8741944B2, “Anti-infective agents against intracellular pathogens” (priority 2007, dated 2014).
Entries after “also recorded” stand apart in the source; their conditions may differ. Like-named read-outs stand apart in the source and are kept apart here.

How the values were obtained:
recombinant PDK-1 = recombinant PDK-1 (Homo sapiens (Human), UniProt O15530); test: PDK-1 kinase activity (PDK-1 kinase assay kit, cell-free); assay type: biochemical; conditions: for IC50: inhibiting recombinant PDK-1 kinase activity
recombinant PDK-1, sequence (O15530 whole entry, looked up): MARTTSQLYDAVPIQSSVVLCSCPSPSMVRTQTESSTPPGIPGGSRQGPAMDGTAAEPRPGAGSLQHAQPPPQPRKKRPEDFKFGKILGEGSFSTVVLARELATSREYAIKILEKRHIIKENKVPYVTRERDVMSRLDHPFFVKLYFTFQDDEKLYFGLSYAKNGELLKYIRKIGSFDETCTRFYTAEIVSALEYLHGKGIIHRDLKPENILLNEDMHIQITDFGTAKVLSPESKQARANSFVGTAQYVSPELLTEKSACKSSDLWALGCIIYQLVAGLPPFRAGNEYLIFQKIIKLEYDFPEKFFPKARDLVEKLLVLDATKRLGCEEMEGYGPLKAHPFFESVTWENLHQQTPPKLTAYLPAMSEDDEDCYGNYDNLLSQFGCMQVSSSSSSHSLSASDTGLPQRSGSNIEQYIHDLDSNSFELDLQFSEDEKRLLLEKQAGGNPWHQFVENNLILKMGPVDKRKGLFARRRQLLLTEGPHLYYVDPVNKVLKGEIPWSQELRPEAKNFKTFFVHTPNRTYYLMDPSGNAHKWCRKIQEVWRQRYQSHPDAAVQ
Experimental: PDK-1 kinase activity This in vitro assay was performed using a PDK-1 kinase assay kit (Upstate, Lake Placid, N.Y.) according to the vendor's instructions. This cell-free assay is based on the ability of recombinant PDK-1, in the presence of DMSO vehicle or the test agent, to activate its downstream kinase serum- and glucocorticoid-regulated kinase (SGK.) which, in turn, phosphorylates the Akt/SGK-specific peptide substrate RPRAATF with [γ-^32]-ATP. […] The reported values represent the means of two independent determinations.

PC-3 cells [1] = test: Cell viability analysis, MTT assay in PC-3 cells; assay type: cell-based, human
Experimental: Cell Culture PC-3 (p53−/−) human androgen-non-responsive prostate cancer cells were purchased from the American […] (Manassas, Va.). Cells were cultured in RPMI 1640 medium (Gibco, Grand Island, N.Y.) supplemented with 10% fetal bovine serum (FBS; Gibco) at 37° C. in a humidified incubator containing 5% CO2.
Controls received DMSO vehicle at a concentration equal to that in drug-treated cells. The medium was removed, replaced by 200 μl of 0.5 mg/ml of MTT in 10% FBS-containing RPMI-1640 medium, and cells were incubated in the CO2 incubator at 37° C. for 2 h. Supernatants were removed from the wells, and the reduced MTT dye was solubilized in 200 μL/well DMSO. Absorbance at 570 nm was determined on a plate reader.

Akt [2] = test: Immunoprecipitated Akt kinase assay after treatment of PC-3 cells (intracellular Akt activation); assay type: cell-based, human; conditions: PC-3 cells treated for 2 h; read-out: IC50 for inhibiting intracellular Akt activation
Experimental: Immunoprecipitated Akt kinase assay Akt immunoprecipitation was carried out according to a modified, published procedure. PC-3 cells were treated with DMSO vehicle or the test agents at the indicated concentrations for 2 h and then lysed at 4° C. for 1 h in buffer A containing 50 mM Tris-HCl, pH 7.5, 1% Triton X-100, 1 mM EDTA, 1 mM EGTA, 50 mM sodium fluoride, 10 mM sodium β-glycerophosphate. 0.1% 2-mercaptoethanol, 0.1 mM phenylmethylsiilfonyl fluoride, and 1 μg/mL each of aprotinin, pepstatin, and leupeptin. Cell lysates were centrifuged at 10,000 g for 5 min, and the supernatant was treated with anti-Akt at 4° C. for 60 min., followed by protein G-agarose beads for additional 60 min. The immunoprecipitate was used to analyze Akt kinase activity by using the Akt/SGK-specific peptide substrate RPRAATF as described above. Values represented the means of two independent determinations.

Akt [3] = test: Direct inhibition of immunoprecipitated Akt kinase activity; assay type: biochemical, human
phospho-Akt = test: Western blot analysis of Akt and phospho-Akt in PC-3 cells; assay type: cell-based, human; conditions: 5 μM and above
Experimental: Immunoblotting. The general procedure for the Western blot analysis of Akt and phospho-Akt is described as follows. Cells were washed in PBS, resuspended in SDS sample buffer sonicated by an ultrasonic sonicator for 5 see, and boiled for 5 min. After brief centrifugation, equivalent protein concentrations from the soluble fractions were resolved in 10% SDS-polyacrylamide gels on a Minigel apparatus, and transferred to a nitrocellulose membrane using a semi-dry transfer cell. The transblotted membrane was washed three times with TBS containing 0.05% Tween 20 (TBST). After blocking with TBST containing 5% nonfat milk for 60 min., the membrane was incubated with the primary antibody at 1:1,000 dilution in TBST-5% low fat milk at 4° C. for 12 h, and was then washed three times with TBST. The membrane was probed with goat anti-rabbit IgG-HRP conjugates (1:1,000) for 1 h at room temperature, and was washed with TBST three times. The immunoblots were visualized by enhanced chemiluminescence.

PC-3 cells [4] = test: Cell proliferation of PC-3 cells (Coulter counter, 10% FBS); assay type: cell-based, human; conditions: 1 μM, 10% FBS-supplemented RPMI 1640 medium
Experimental: Cell Proliferation PC-3 cells were seeded into six-well plates at 50,000 cells/well in 10% FBS-containing RPMI 1640 medium. Following a 24 h attachment period, cells were treated in triplicate with the indicated concentration of compounds 1-36 or DMSO vehicle in 10% FBS-containing RPMI-1640 medium. At different time intervals, cells were harvested by trypsinization, and numerated using a Coulter counter model Z1 D/T (Beckman Coulter, Fullerton, Calif.).

S. typhimurium [5] = test: Intracellular survival (gentamicin protection) assay, S. typhimurium in RAW 264.7 murine macrophages; assay type: cell-based, Salmonella typhimurium
Experimental: The discovery that OSU-03012 induces autophagy in human cancer cells, coupled with the importance of autophagy as a defense against intracellular pathogens, prompted us to test the effect of this agent on the intracellular survival of S. typhimurium in infected RAW 264.7 murine macrophages. Both time- and dose-dependent effects of OSU-03012 were assessed in intracellular survival (i.e. gentamicin protection) assays. […] To determine if OSU-03012 had direct bactericidal activity, the effect of OSU-03012 on extracellular bacterial growth was examined in liquid medium (FIG. 3C) and on agar by the disc-diffusion method (not shown).

S. typhimurium [6] = test: Extracellular bacterial growth in liquid medium and on agar (disc-diffusion); assay type: cell-based, Salmonella typhimurium; conditions: concentrations of up to 5 μM
F. novicida = assay type: cell-based; conditions: RAW 264.7 cells, 1 μM for 24 h
autophagy = test: Autophagy induction; assay type: cell-based, human
From the text: OSU-03012 eliminates intracellular S. typhimurium by inducing autophagy in infected macrophages. […] Additional evidence for this mechanism of action comes from the human breast cancer cell lines, MCF-7 and MDA-MB-231, which differ in their expression levels of beclin-1, a tumor suppressor that is critical for the execution of autophagy (FIG. 5A). Accordingly, the ability of OSU-03012 to induce autophagy in these cell lines, as determined by the intensity of immunostaining for endogenous LC3, a marker of mammalian autophagosomes (FIG. 5C), correlates with their respective beclin-1 expression levels. Moreover, intracellular bacterial survival in OSU-03012-treated S. typhimurium-infected breast cancer cells also reflects their respective beclin-1 status (FIG. 5B). […] Moreover, OSU-03012 induces autophagy and bacterial clearance far more potently than rapamycin and at clinically attainable concentrations.

[7] = in vivo
[8] = inducing apoptotic death in PC-3 cells / PC-3 cell viability, read-out: IC50 PC-3

Molecule	IC50 (PC-3 cells [1]; [8]) [µM]	IC50 (recombinant PDK-1) [µM]	also measured
4-[5-(2-phenanthrenyl)-3-(trifluoromethyl)-1H-1-yl]benzenesulfonamide [Compound 59]	5		improvement of IC50 values over 4-[5-(4-methylphenyl)-3-(trifluoromethyl)-1H-pyrazol-1-yl]benzenesulfonamide (recombinant PDK-1; PDK-1 activity and PC-3 cell viability): five- to six-fold; IC50 (PC-3 cells [1]; 24 h, 1% FBS-containing RPMI 1640 medium, read-out: dose required to induce 50% PC-3 cell death): 5 µM; IC50 (Akt [2]): 5 µM; direct inhibitory effect on immunoprecipitated Akt kinase activity (Akt [3]): Neither compound 59 nor other the other compounds displayed a direct inhibitory effect; Akt dephosphorylation (Western blot) (phospho-Akt): significant Akt dephosphorylation; anti-proliferative activity on PC-3 cell proliferation (PC-3 cells [4]): substantial anti-proliferative activity
4-[5-(4-(phenylmethyl)phenyl)-3-(trifluoromethyl)-1H-1-yl]benzenesulfonamide [Compound 56]	8	15	
4-[5-(9-phenanthrenyl)-3-(trifluoromethyl)-1H-1-yl]benzenesulfonamide [Compound 60]	23	42	
4-[5-(4′-butyl[1,1′-biphenyl]-4-yl)-3-(trifluoromethyl)-1H-1-yl]benzenesulfonamide [Compound 54]	15	32	
Cn1cnc(N)c2ncnc1-2 [Compound 3MA, 3-methyladenine]			effect on ability of OSU-03012 to reduce intracellular bacterial survival (S. typhimurium [5]; infected RAW 264.7 cells, 1 μM OSU-03012 for 8 h): completely blocked
5-(2-Phenanthrenyl)-3-(trifluoromethyl)-4-(1H-tetrazol-5-ylmethylphenyl)-1H-pyrazole [Compound 69]	27	45	
4-[5-(9H-fluoren-2-yl)-3-(trifluoromethyl)-1H-1-yl]benzenesulfonamide [Compound 57]		16	
Cc1ccc(-c2cc(C(F)(F)F)nn2-c2ccc(S(N)(=O)=O)cc2)cc1 [Comparative Compound, 4-[5-(4-methylphenyl)-3-(trifluoromethyl)-1H-pyrazol-1-yl]benzenesulfonamide, reference compound]			IC50 (PC-3 cells [1]; Homo sapiens, PC-3, read-out: IC50 PC-3): 30 µM
4-[5-(3′,5′-dimethyl[1,1;-biphenyl]-4-yl)-3-(trifluoromethyl)-1H-1-yl]benzenesulfonamide [Compound 53]		17	
5-(2-Phenanthrenyl)-3-(trifluoromethyl)-4-(1H-tetrazol-5-ylphenyl)-1H-pyrazole [Compound 64]	32	52	
4-[5-4-biphenylyl)-3-(trifluoromethyl)-1H-pyrazol-1-yl]benzensulfonamide [Compound 45]	11	21	
4-[5-(4′-tert-buty[1,1′-biphenyl]-4-yl)-3-(trifluoromethyl)-1H-1-yl]benzenesulfonamide [Compound 55]	15	32	
4-[5-(4′triflouromethyl[1,1′-biphenyl]-4-yl)-3-(trifluoromethyl)-1H-1-yl]benzenesulfonamide [Compound 51]	8	18	
NCC(=O)Nc1ccc(-n2nc(C(F)(F)F)cc2-c2ccc3c(ccc4ccccc43)c2)cc1 [OSU-03012]		~5	concentration of maximal inhibition of intracellular bacterial survival (S. typhimurium [5]; S. typhimurium in RAW 264.7, 8 h of treatment): 1 µM; IC50 (S. typhimurium [5]; Salmonella enterica, RAW264.7, S. typhimurium in RAW 264.7, 8 h of treatment, read-out: IC50 of intracellular bacterial survival): ~0.2 µM; extracellular growth of S. typhimurium (S. typhimurium [6]): unaffected; intracellular survival of F. novicida (F. novicida): drastically reduced; also recorded: reduced intracellular survival; IC50 for autophagy induction (autophagy): sub-μM; oral bioavailability / pharmacokinetic properties [7]: orally bioavailable with favorable pharmacokinetic properties
4-[5-(4′-bromomethyl[1,1′-biphenyl]-4-yl)-3-(trifluoromethyl)-1H-1-yl]benzenesulfonamide [Compound 52]	11	20	
4-[5-(4′-methyl[1,1′-biphenyl]4-yl)-3-(trifluoromethyl)-1H-1-yl]benzenesulfonamide [Compound 50]	8		
CO[C@H]1C[C@@H]2CC[C@@H](C)[C@@](O)(O2)C(=O)C(=O)N2CCCC[C@H]2C(=O)O[C@H]([C@H](C)C[C@@H]2CC[C@@H](O)[C@H](OC)C2)CC(=O)[C@H](C)/C=C(\C)[C@@H](O)[C@@H](OC)C(=O)[C@H](C)C[C@H](C)/C=C/C=C/C=C/1C [rapamycin]			suppression of survival of S. typhimurium in murine macrophages (S. typhimurium [5]): capable of suppressing survival; fold higher concentration required to match bacterial clearance caused by OSU-03012 (S. typhimurium [5]; S. typhimurium in murine macrophages): ~100 fold
